Some test systems named below: HL-60; IGROV-1; HOP-92; SF-539; SK-MEL-28; NCI-H23; LOX IMVI; SK-MEL-2; BT-549; Hs-578T; KM12; TK-10; HOP-62; SNB-75; RXF 393; RPMI-8226; MCF7; K562; MDA-MB-435; SK-MEL-5.
Holding throughout (assay): inhibition of tumour cell growth, NCI panel, 48 h

These results are taken from ChEMBL document CHEMBL1201862, “PubChem BioAssay data set” (2004).

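Briefly, cells in 96-well plates were exposed to five compound concentrations for 48 h, and endpoints were estimated by linear interpolation. Abbreviation: GI50, concentration required for 50% inhibition of growth.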 Calls of active or inactive are those of the source. No stated cut-off is given here; in the data, active = GI50 up to about 1.1 µM and inactive = higher.

For `CC(=O)NC(CS)C(=O)O` (stereo not given), the GI50 is 34200 µM (inactive) with HL-60; 2610 µM (inactive) in the assay with IGROV-1; 12500 µM (inactive) with HOP-92; 26100 µM (inactive) with SF-539; 19900 µM (inactive) with SK-MEL-28; 20200 µM (inactive) in the assay with NCI-H23. For the same compound, the GI50 in the assay on LOX IMVI was > 100 µM (inactive); with SK-MEL-2, 18500 µM (inactive); in the assay on BT-549 it was > 100 µM (inactive); with Hs-578T, 18700 µM (inactive); with KM12 it was 33300 µM (inactive); in the assay on TK-10 it was 10000 µM (inactive). Moreover, the GI50 in the assay with HOP-62 was 12800 µM (inactive); with SNB-75, 10700 µM (inactive); with RXF 393, 21900 µM (inactive); in the assay with RPMI-8226, 746 µM (inactive); in the assay on MCF7, 25200 µM (inactive); in the assay on K562 it was 21700 µM (inactive). For the same compound, the GI50 in the assay on MDA-MB-435 was 17800 µM (inactive); in the assay on SK-MEL-5, 14500 µM (inactive).
With `O=C(NC(=O)c1c(F)cccc1F)Nc1cccc(Oc2ncc(Cl)cn2)c1`, the GI50 is 3.51 µM (inactive) with HL-60; 33.4 µM (inactive) with IGROV-1; 16.6 µM (inactive) in the assay on HOP-92; 23.3 µM (inactive) with SF-539; > 100 µM (inactive) in the assay on SK-MEL-28; > 100 µM (inactive) in the assay on NCI-H23. For the same compound, the GI50 was 29.3 µM (inactive) in the assay with LOX IMVI; > 51.6 µM (inactive) in the assay on SK-MEL-2; > 24.8 µM (inactive) in the assay on BT-549; 35.2 µM (inactive) with Hs-578T; 1.4 µM (inactive) in the assay on KM12; > 100 µM (inactive) in the assay on TK-10. For the same compound, the GI50 in the assay on HOP-62 is 29.6 µM (inactive); in the assay on SNB-75, 19.5 µM (inactive); in the assay with RXF 393, 38.5 µM (inactive); in the assay with RPMI-8226, > 94.8 µM (inactive); in the assay with MCF7, > 100 µM (inactive); with K562 it was 3.1 µM (inactive). Further, the GI50 in the assay with MDA-MB-435 was 1.63 µM (inactive); with SK-MEL-5 it was > 100 µM (inactive).
Consider `CCN(CC)c1ccc(/C=C/C(=O)c2cc(C(C)(C)C)c(O)c(C(C)(C)C)c2)cc1`, for which the GI50 with HL-60 was 3.37 µM (inactive); with IGROV-1 it was 64 µM (inactive); in the assay on HOP-92, > 100 µM (inactive); with SF-539, 3.19 µM (inactive); in the assay with SK-MEL-28, > 50.7 µM (inactive); in the assay on NCI-H23, 9.77 µM (inactive). Further, the GI50 in the assay with LOX IMVI was 5.78 µM (inactive); in the assay on SK-MEL-2 it was 6.76 µM (inactive); in the assay with BT-549 it was 8.24 µM (inactive); in the assay with Hs-578T, 5.93 µM (inactive); in the assay on KM12, 2.99 µM (inactive); with TK-10, 5.71 µM (inactive). Also, the GI50 is 27 µM (inactive) in the assay on HOP-62; 4.9 µM (inactive) in the assay on SNB-75; 2.7 µM (inactive) in the assay with RXF 393; 4.94 µM (inactive) in the assay on RPMI-8226; 3.64 µM (inactive) in the assay on MCF7; 8.45 µM (inactive) in the assay with K562. Further, the results for the GI50 in the assay with MDA-MB-435 and in the assay with SK-MEL-5 were 3.21 µM (inactive) and 16.3 µM (inactive), respectively.
On to `OC(Cc1cc(CC(O)(C(F)(F)F)C(F)(F)F)nc(CC(O)(C(F)(F)F)C(F)(F)F)c1)(C(F)(F)F)C(F)(F)F`, for which the GI50 with HL-60 was > 10 µM (inactive); in the assay with IGROV-1, 0.764 µM (active); with HOP-92, 0.541 µM (active); with SF-539 it was 1.69 µM (inactive); in the assay with SK-MEL-28, 1.98 µM (inactive); in the assay on NCI-H23, 0.475 µM (active). For the same compound, the GI50 with LOX IMVI was 0.39 µM (active); with SK-MEL-2 it was 2.02 µM (inactive); with BT-549, 2.46 µM (inactive); in the assay on Hs-578T it was 1.03 µM (active); in the assay on KM12, 0.482 µM (active); in the assay with TK-10, 3.99 µM (inactive). Further, the GI50 in the assay with HOP-62 was 1.73 µM (inactive); in the assay on SNB-75 it was 1.92 µM (inactive); with RXF 393, 2.18 µM (inactive); with RPMI-8226 it was > 10 µM (inactive); with MCF7, 0.826 µM (active); in the assay on K562, > 10 µM (inactive). In addition, the GI50 was 2.39 µM (inactive) in the assay with MDA-MB-435 and 1.51 µM (inactive) in the assay with SK-MEL-5.
Turning to `COC(=O)C1=C(C)NC2=C(C(=O)c3ccccc32)C1c1cn(-c2ccccc2)nc1-c1ccccc1` (stereo not given), the GI50 with HL-60 was 23.2 µM (inactive); in the assay on IGROV-1, 6.24 µM (inactive); in the assay with HOP-92, 18.3 µM (inactive); in the assay with SF-539 it was 21.2 µM (inactive); in the assay on SK-MEL-28, 96.8 µM (inactive); in the assay with NCI-H23 it was 20.7 µM (inactive). Also, the GI50 with LOX IMVI is 37.4 µM (inactive); in the assay on SK-MEL-2 it was > 59.3 µM (inactive); in the assay on BT-549, 63.7 µM (inactive); in the assay on Hs-578T, > 100 µM (inactive); in the assay with KM12 it was 7.93 µM (inactive); in the assay on TK-10, > 100 µM (inactive). For the same compound, the GI50 was > 100 µM (inactive) with HOP-62; 1.56 µM (inactive) with SNB-75; > 44.8 µM (inactive) in the assay with RXF 393; 2.67 µM (inactive) in the assay with RPMI-8226; 26.8 µM (inactive) in the assay on MCF7; 16.3 µM (inactive) in the assay with K562. The GI50 is 16.6 µM (inactive) with MDA-MB-435 and > 100 µM (inactive) with SK-MEL-5.
Take `CCOP(=O)(OCC)/C(C#N)=C(\C)c1ccco1`: the GI50 in the assay on HL-60, in the assay on IGROV-1, with HOP-92, in the assay with SF-539, with SK-MEL-28 and in the assay on NCI-H23 was > 10 µM (inactive) throughout. The GI50 in the assay on LOX IMVI, in the assay with SK-MEL-2, with BT-549, in the assay on Hs-578T, in the assay on KM12 and in the assay on TK-10 was > 10 µM (inactive) in each case. Besides, the GI50 in the assay with HOP-62, in the assay on SNB-75, with RXF 393, in the assay on RPMI-8226, with MCF7 and in the assay on K562 was > 10 µM (inactive) each time. In addition, the GI50 in the assay with MDA-MB-435 and in the assay on SK-MEL-5 was > 10 µM (inactive) in each case.
On to `COC(=O)[C@H]1[C@H](C(=O)OC)[C@@H](C)c2c(ccc3c2[nH]c2ccccc23)[C@@H]1C`, for which the GI50 in the assay with HL-60 was 5.81 µM (inactive); in the assay with IGROV-1, 71.9 µM (inactive); in the assay on HOP-92 it was 37.9 µM (inactive); in the assay on SF-539 it was > 100 µM (inactive); in the assay on SK-MEL-28 it was > 100 µM (inactive); with NCI-H23, 41.2 µM (inactive). Also, the GI50 is 22.6 µM (inactive) in the assay on LOX IMVI; 34.1 µM (inactive) in the assay with SK-MEL-2; > 100 µM (inactive) in the assay on BT-549; 31.1 µM (inactive) in the assay with Hs-578T; 32.9 µM (inactive) in the assay with KM12; 26.4 µM (inactive) with TK-10. Also, the GI50 was 35.6 µM (inactive) in the assay with HOP-62; 19.7 µM (inactive) in the assay on SNB-75; 14.1 µM (inactive) in the assay on RXF 393; 11.8 µM (inactive) in the assay with RPMI-8226; 43.4 µM (inactive) in the assay on MCF7; 0.9 µM (active) in the assay on K562. Moreover, the GI50 in the assay with MDA-MB-435 and in the assay with SK-MEL-5 was > 100 µM (inactive) in each case.
With `S=C(Nc1cccc(C2(N3CCCCC3)CCCCC2)c1)Nc1cccc(C2(N3CCCCC3)CCCCC2)c1`, the GI50 in the assay with HL-60 is 14.9 µM (inactive); in the assay with IGROV-1, 54.5 µM (inactive); in the assay on HOP-92 it was 10.3 µM (inactive); in the assay with SF-539 it was 15.3 µM (inactive); with SK-MEL-28, 17.9 µM (inactive); in the assay on NCI-H23 it was > 100 µM (inactive). Moreover, the GI50 in the assay on LOX IMVI is 12.7 µM (inactive); in the assay on SK-MEL-2, 18.4 µM (inactive); with BT-549, 41.1 µM (inactive); in the assay with Hs-578T it was 38.9 µM (inactive); with KM12, 16 µM (inactive); in the assay on TK-10, 2.69 µM (inactive). Further, the GI50 with HOP-62 was 39.2 µM (inactive); with SNB-75, 12.9 µM (inactive); in the assay with RXF 393, 13.6 µM (inactive); in the assay with RPMI-8226 it was 10.6 µM (inactive); in the assay with MCF7, 31.3 µM (inactive); in the assay on K562, 11.2 µM (inactive). Also, the figures for the GI50 in the assay with MDA-MB-435 and in the assay with SK-MEL-5 were 16 µM (inactive) and 17.7 µM (inactive), respectively.
Take `CN(C)c1ccc(/C=C(\NC(=O)c2ccccc2)C(=O)NC(CCC(=O)O)C(=O)O)cc1` (stereo not given): the GI50 in the assay on HL-60, with IGROV-1, in the assay on HOP-92, in the assay on SF-539, in the assay on SK-MEL-28 and in the assay on NCI-H23 was > 100 µM (inactive) in each case. Further, the GI50 in the assay on LOX IMVI, in the assay on SK-MEL-2, with BT-549, in the assay with Hs-578T, in the assay on KM12 and in the assay on TK-10 was > 100 µM (inactive) each time. The GI50 in the assay with HOP-62, with SNB-75, in the assay with RXF 393, in the assay on RPMI-8226, with MCF7 and in the assay on K562 was > 100 µM (inactive) throughout. The GI50 in the assay with MDA-MB-435 and with SK-MEL-5 was > 100 µM (inactive) in each case.
As to `O=C(O)/C(Cl)=C(/Cl)C(=O)Nc1cccc(Cl)c1`, the GI50 in the assay with HL-60 was 8.91 µM (inactive); in the assay with IGROV-1, 18.8 µM (inactive); in the assay with HOP-92, 14.6 µM (inactive); with SF-539, 17.6 µM (inactive); in the assay on SK-MEL-28 it was 17.9 µM (inactive); in the assay on NCI-H23, 15.9 µM (inactive). The GI50 was 13.8 µM (inactive) in the assay with LOX IMVI; 20.8 µM (inactive) in the assay on SK-MEL-2; 19.4 µM (inactive) in the assay with BT-549; 24.8 µM (inactive) in the assay on Hs-578T; 20.8 µM (inactive) in the assay with KM12; 18.1 µM (inactive) in the assay with TK-10. The GI50 was > 59.4 µM (inactive) in the assay on HOP-62; 17.9 µM (inactive) in the assay with SNB-75; 16.4 µM (inactive) with RXF 393; 12.1 µM (inactive) with RPMI-8226; 24.8 µM (inactive) in the assay with MCF7; 6.43 µM (inactive) in the assay with K562. In addition, the GI50 in the assay on MDA-MB-435 is 19.2 µM (inactive); with SK-MEL-5 it was 19 µM (inactive).
